Earlier results on 1 compound are cited in patent US10603272B2, “Stimulation of appetite and treatment of anorexia in dogs and cats” (Kindred Biosciences, Inc., priority 2015, dated 2020).

As for `CN1CCN2c3ncccc3Cc3ccccc3C2C1` (stereo not shown) [mirtazapine], the solubility in water entry is “insoluble in water”.
